For two molecules, GI50 and TGI results are on record in PubChem BioAssay (NCI).

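These data come from cells grown in 96-well plates and exposed to compound for 48 hours at five concentrations. At the GI50, growth is halved. The concentration for full growth arrest is given as TGI.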

Some test systems named below: HCT-116 colon; HOP-62 NSCLC; HOP-92 NSCLC; HS 578T breast; MDA-MB-435; NCI-H226 lung; SF-295 CNS; SF-539 CNS; SW-620 colon; U251 CNS.
Experiment in all cases: growth of human tumour cells (NCI), 48 h

Turning to `CCOC(=O)C(Cc1c[nH]c2c(N(CCO)CCO)cccc12)(NC(C)=O)C(=O)OCC`, the GI50 in the test with HCT-116 colon is 412 µM; in the test on HOP-62 NSCLC, greater than 1000 µM; in the test on HOP-92 NSCLC, greater than 1000 µM; in the test on HS 578T breast it was 302 µM; in the test on MDA-MB-435, 167 µM; in the test with NCI-H226 lung, 439 µM. Moreover, the GI50 in the test on SF-295 CNS was 148 µM; in the test on SF-539 CNS it was greater than 1000 µM; with SW-620 colon, 431 µM; with U251 CNS, 183 µM. The TGI in the test on HCT-116 colon was greater than 1000 µM; in the test with HOP-62 NSCLC it was greater than 1000 µM; with HOP-92 NSCLC, greater than 1000 µM; with HS 578T breast it was greater than 1000 µM; in the test with MDA-MB-435, 311 µM; in the test on NCI-H226 lung, greater than 1000 µM. In addition, the TGI was greater than 1000 µM in the test on SF-295 CNS, greater than 1000 µM with SF-539 CNS, greater than 1000 µM in the test with SW-620 colon and 420 µM in the test on U251 CNS.
With `CC[C@H](Nc1ncnc2nc[nH]c12)c1nc2cccc(F)c2c(=O)n1-c1ccccc1`, the GI50 is 39.4 µM with HCT-116 colon; greater than 100 µM in the test with HOP-62 NSCLC; 4.86 µM in the test on HOP-92 NSCLC; 4.12 µM in the test with HS 578T breast; 19.1 µM in the test on MDA-MB-435; greater than 65.6 µM in the test on NCI-H226 lung. Further, the GI50 with SF-295 CNS was 5.75 µM; in the test with SF-539 CNS, 19.7 µM; in the test with SW-620 colon, 79.7 µM; in the test on U251 CNS it was 51.2 µM. Moreover, the TGI was greater than 100 µM in the test with HCT-116 colon; greater than 100 µM in the test on HOP-62 NSCLC; greater than 60.4 µM with HOP-92 NSCLC; greater than 88.3 µM with HS 578T breast; greater than 74.6 µM with MDA-MB-435; greater than 100 µM in the test with NCI-H226 lung. In addition, the TGI in the test with SF-295 CNS, in the test on SF-539 CNS, in the test with SW-620 colon and with U251 CNS was greater than 100 µM in each case.
